Test results published in ChEMBL document CHEMBL5316327, “Design and Synthesis of Orally Active Quinolyl Pyrazinamides as Sigma 2 Receptor Ligands for the Treatment of Pancreatic Cancer” (J Med Chem, 2023).

target: Sigma non-opioid intracellular receptor 1 (Homo sapiens, UniProt Q99720); assay: Displacement of [3H](+)-pentazocine from human sigma 1 receptor transfected in human HEK293T cells assessed as inhibition constant by radioligand competition binding assay; assay type: cell-based; conditions: not given
Sequence (Q99720 whole entry): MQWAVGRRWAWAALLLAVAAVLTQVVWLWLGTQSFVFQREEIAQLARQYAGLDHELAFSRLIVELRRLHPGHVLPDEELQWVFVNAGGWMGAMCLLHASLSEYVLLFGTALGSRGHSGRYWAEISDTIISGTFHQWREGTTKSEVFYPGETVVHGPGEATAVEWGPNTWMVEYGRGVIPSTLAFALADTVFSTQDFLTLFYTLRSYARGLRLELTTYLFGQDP

Ki [nM] | Compound
112 | CN(C)CCOc1cnc(C(=O)Nc2cc(F)cc3cccnc23)cn1
233 | CCN(CC)CCCC(C)Nc1cnc(C(=O)Nc2cccc3ccc(C)nc23)cn1 (stereo not given)
155 | CCN(CC)CCCC(C)Nc1cnc(C(=O)Nc2cccc3cc(Cl)cnc23)cn1 (stereo not given)
212 | CCN(CC)CCCC(C)Nc1cnc(C(=O)Nc2ccc(F)c3cccnc23)cn1 (stereo not given)
59 | CCN(CC)CCCC(C)Nc1cnc(C(=O)Nc2cccc3c(Cl)ccnc23)cn1 (stereo not given)
1460 | CCN(CC)CCCC(C)Nc1cnc(CNc2cc(F)cc3cccnc23)cn1 (stereo not given)
2290 | O=C(Nc1cc(F)cc2cccnc12)c1cnc(NCCN2CCS(=O)(=O)CC2)cn1
398 | CCN(CC)CCCC(C)Nc1cnc(C(=O)Nc2ccc(C)c3cccnc23)cn1 (stereo not given)
208 | O=C(Nc1cc(F)cc2cccnc12)c1cnc(NCCN2CCCC2)cn1
159 | CCN(CC)CCCC(C)Nc1nc(C(=O)Nc2cc(F)cc3cccnc23)cs1 (stereo not given)
169 | CCN(CC)CCCC(C)Nc1cnc(C(=O)Nc2cccc3cc(C)cnc23)cn1 (stereo not given)
67 | CCN(CC)CCCC(C)Nc1cnc(C(=O)Nc2cc(C)c(Cl)c3cccnc23)cn1 (stereo not given)
95 | CCN(CC)CCCC(C)Nc1cnc(C(=O)Nc2cc(Cl)cc3cccnc23)cn1 (stereo not given)
83 | CCN(CC)CCCC(C)Nc1cnc(C(=O)Nc2cccc3ccc(Cl)nc23)cn1 (stereo not given)
67 | CCN(CC)CCCC(C)Nc1cnc(C(=O)Nc2cccc3ccc(OC)nc23)cn1 (stereo not given)
110 | CN(C)CCCNc1cnc(C(=O)Nc2cc(F)cc3cccnc23)cn1
317 | CCN(CC)CCCC(C)Nc1cnc(C(=O)Nc2ccc(OC)c3cccnc23)cn1 (stereo not given)
159 | CCN(CCO)CCCC(C)Nc1cnc(C(=O)Nc2cc(C)cc3cccnc23)cn1 (stereo not given)
336 | Cc1cc(NC(=O)c2cnc(OC3CCNCC3)cn2)c2ncccc2c1
122 | CCN(CC)CCCC(C)Nc1cnc(C(=O)Nc2cc(F)c(Cl)c3cccnc23)cn1 (stereo not given)
627 | CN(C)CCNc1cnc(C(=O)Nc2cc(F)cc3cccnc23)cn1
188 | CCN(CC)CCCC(C)Nc1ccc(S(=O)(=O)Nc2cc(F)cc3cccnc23)nc1 (stereo not given)
132 | CCN(CC)CCCC(C)Nc1cnc(C(=O)Nc2ccc(OC)c3ccc(OC)nc23)cn1 (stereo not given)

target: Sigma intracellular receptor 2 (Homo sapiens, UniProt Q5BJF2); assay: Displacement of [3H][…]ditolylguanidine from human sigma 2 receptor transfected in human HEK293T cells assessed as inhibition constant by radioligand competition binding assay; assay type: cell-based; conditions: not given
Sequence (Q5BJF2 whole entry): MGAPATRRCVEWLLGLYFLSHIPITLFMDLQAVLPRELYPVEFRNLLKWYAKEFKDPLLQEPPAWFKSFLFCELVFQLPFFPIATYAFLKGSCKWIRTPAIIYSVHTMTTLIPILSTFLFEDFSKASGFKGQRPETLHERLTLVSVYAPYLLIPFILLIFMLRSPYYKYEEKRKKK

Ki [nM] | Compound
1340 | CN(C)CCOc1cnc(C(=O)Nc2cc(F)cc3cccnc23)cn1
44 | CCN(CC)CCCC(C)Nc1cnc(C(=O)Nc2cccc3ccc(C)nc23)cn1 (stereo not given)
51 | CCN(CC)CCCC(C)Nc1cnc(C(=O)Nc2cccc3cc(Cl)cnc23)cn1 (stereo not given)
18 | CCN(CC)CCCC(C)Nc1cnc(C(=O)Nc2ccc(F)c3cccnc23)cn1 (stereo not given)
20 | CCN(CC)CCCC(C)Nc1cnc(C(=O)Nc2cccc3c(Cl)ccnc23)cn1 (stereo not given)
65 | CCN(CC)CCCC(C)Nc1cnc(CNc2cc(F)cc3cccnc23)cn1 (stereo not given)
3770 | O=C(Nc1cc(F)cc2cccnc12)c1cnc(NCCN2CCS(=O)(=O)CC2)cn1
42 | CCN(CC)CCCC(C)Nc1cnc(C(=O)Nc2ccc(C)c3cccnc23)cn1 (stereo not given)
165 | O=C(Nc1cc(F)cc2cccnc12)c1cnc(NCCN2CCCC2)cn1
32 | CCN(CC)CCCC(C)Nc1nc(C(=O)Nc2cc(F)cc3cccnc23)cs1 (stereo not given)
16 | CCN(CC)CCCC(C)Nc1cnc(C(=O)Nc2cccc3cc(C)cnc23)cn1 (stereo not given)
36 | CCN(CC)CCCC(C)Nc1cnc(C(=O)Nc2cc(C)c(Cl)c3cccnc23)cn1 (stereo not given)
14 | CCN(CC)CCCC(C)Nc1cnc(C(=O)Nc2cc(Cl)cc3cccnc23)cn1 (stereo not given)
12 | CCN(CC)CCCC(C)Nc1cnc(C(=O)Nc2cccc3ccc(Cl)nc23)cn1 (stereo not given)
13 | CCN(CC)CCCC(C)Nc1cnc(C(=O)Nc2cccc3ccc(OC)nc23)cn1 (stereo not given)
105 | CN(C)CCCNc1cnc(C(=O)Nc2cc(F)cc3cccnc23)cn1
40 | CCN(CC)CCCC(C)Nc1cnc(C(=O)Nc2ccc(OC)c3cccnc23)cn1 (stereo not given)
71 | CCN(CCO)CCCC(C)Nc1cnc(C(=O)Nc2cc(C)cc3cccnc23)cn1 (stereo not given)
134 | Cc1cc(NC(=O)c2cnc(OC3CCNCC3)cn2)c2ncccc2c1
28 | CCN(CC)CCCC(C)Nc1cnc(C(=O)Nc2cc(F)c(Cl)c3cccnc23)cn1 (stereo not given)
471 | CN(C)CCNc1cnc(C(=O)Nc2cc(F)cc3cccnc23)cn1
38 | CCN(CC)CCCC(C)Nc1ccc(S(=O)(=O)Nc2cc(F)cc3cccnc23)nc1 (stereo not given)
70 | CCN(CC)CCCC(C)Nc1cnc(C(=O)Nc2ccc(OC)c3ccc(OC)nc23)cn1 (stereo not given)

tested on: not listed separately; assay: Metabolic stability in mouse liver microsomes assessed as half life at 10 uM measured upto 60 mins in presence of NADPH by LC-MS/MS analysis; assay type: ADME, Microsome; conditions: 1 h

t1/2 [min] | Compound
3.3 | CCN(CC)CCCC(C)Nc1nc(C(=O)Nc2cc(F)cc3cccnc23)cs1 (stereo not given)
54 | CCN(CC)CCCC(C)Nc1cnc(C(=O)Nc2cccc3ccc(OC)nc23)cn1 (stereo not given)
15 | CCN(CC)CCCC(C)Nc1ccc(S(=O)(=O)Nc2cc(F)cc3cccnc23)nc1 (stereo not given)

tested on: not listed separately; assay: Metabolic stability in human liver microsomes assessed as half life at 10 uM measured upto 60 mins in presence of NADPH by LC-MS/MS analysis; assay type: ADME, Microsome; conditions: liver microsomes

half-life at 10 µM [min] | Compound
> 60 | CCN(CC)CCCC(C)Nc1cnc(C(=O)Nc2cccc3ccc(OC)nc23)cn1 (stereo not given)

same assay, conditions: microsomes, 1 h, 10 µM

t1/2 [min] | Compound
23 | CCN(CC)CCCC(C)Nc1nc(C(=O)Nc2cc(F)cc3cccnc23)cs1 (stereo not given)
39.2 | CCN(CC)CCCC(C)Nc1ccc(S(=O)(=O)Nc2cc(F)cc3cccnc23)nc1 (stereo not given)

tested on: MIA PaCa-2; assay: cells; conditions: Homo sapiens, MIA PaCa-2, 72 h

IC50 [nM] | Compound
600 | CN(C)CCOc1cnc(C(=O)Nc2cc(F)cc3cccnc23)cn1
9900 | CCN(CC)CCCC(C)Nc1cnc(C(=O)Nc2cccc3ccc(C)nc23)cn1 (stereo not given)
3800 | CCN(CC)CCCC(C)Nc1cnc(C(=O)Nc2cccc3cc(Cl)cnc23)cn1 (stereo not given)
3000 | CCN(CC)CCCC(C)Nc1cnc(C(=O)Nc2ccc(F)c3cccnc23)cn1 (stereo not given)
3400 | CCN(CC)CCCC(C)Nc1cnc(C(=O)Nc2cccc3c(Cl)ccnc23)cn1 (stereo not given)
> 30000 | CCN(CC)CCCC(C)Nc1cnc(CNc2cc(F)cc3cccnc23)cn1 (stereo not given)
> 30000 | O=C(Nc1cc(F)cc2cccnc12)c1cnc(NCCN2CCS(=O)(=O)CC2)cn1
1700 | CCN(CC)CCCC(C)Nc1cnc(C(=O)Nc2ccc(C)c3cccnc23)cn1 (stereo not given)
2000 | O=C(Nc1cc(F)cc2cccnc12)c1cnc(NCCN2CCCC2)cn1
1500 | CCN(CC)CCCC(C)Nc1nc(C(=O)Nc2cc(F)cc3cccnc23)cs1 (stereo not given)
2300 | CCN(CC)CCCC(C)Nc1cnc(C(=O)Nc2cccc3cc(C)cnc23)cn1 (stereo not given)
3200 | CCN(CC)CCCC(C)Nc1cnc(C(=O)Nc2cc(C)c(Cl)c3cccnc23)cn1 (stereo not given)
1800 | CCN(CC)CCCC(C)Nc1cnc(C(=O)Nc2cc(Cl)cc3cccnc23)cn1 (stereo not given)
4900 | CCN(CC)CCCC(C)Nc1cnc(C(=O)Nc2cccc3ccc(Cl)nc23)cn1 (stereo not given)
1900 | CCN(CC)CCCC(C)Nc1cnc(C(=O)Nc2cccc3ccc(OC)nc23)cn1 (stereo not given)
2400 | CN(C)CCCNc1cnc(C(=O)Nc2cc(F)cc3cccnc23)cn1
6800 | CCN(CC)CCCC(C)Nc1cnc(C(=O)Nc2ccc(OC)c3cccnc23)cn1 (stereo not given)
9500 | CCN(CCO)CCCC(C)Nc1cnc(C(=O)Nc2cc(C)cc3cccnc23)cn1 (stereo not given)
6500 | Cc1cc(NC(=O)c2cnc(OC3CCNCC3)cn2)c2ncccc2c1
3900 | CCN(CC)CCCC(C)Nc1cnc(C(=O)Nc2cc(F)c(Cl)c3cccnc23)cn1 (stereo not given)
1400 | CN(C)CCNc1cnc(C(=O)Nc2cc(F)cc3cccnc23)cn1
3800 | CCN(CC)CCCC(C)Nc1ccc(S(=O)(=O)Nc2cc(F)cc3cccnc23)nc1 (stereo not given)
2900 | CCN(CC)CCCC(C)Nc1cnc(C(=O)Nc2ccc(OC)c3ccc(OC)nc23)cn1 (stereo not given)
